# Assay results published in publication PMC9403976, “Elucidating the path to Plasmodium prolyl-tRNA synthetase inhibitors that overcome halofuginone resistance” (Nature Communications, 2022).
# pKd: −log10 of the molar value. Several values for one entry are separate records, joined by “and”; a condition that tells them apart may be missing. Equal entries are not always repeated. Where two headings read alike, the source gives them in different places.
# Columns and labels:
# HsProRS = HsProRS (Homo sapiens, UniProt P07814); test: TR-FRET ligand displacement assay with tracer MAT379 (CoraFluor-1-Halo and anti-His6 antibody formats); assay type: binding; set-up: made in house; host or cells: E. coli SoluBL-21; conditions: for Kd: HsProRS (KD [nM]) mean, no added proline/ATP (-); for pKd: HsProRS - best Kd, SI Fig 16a, values on -log scale; for TR-FRET dose-response, normalized signal (SI Fig 11): individual replicates
# Sequence of HsProRS (P07814 996-1512): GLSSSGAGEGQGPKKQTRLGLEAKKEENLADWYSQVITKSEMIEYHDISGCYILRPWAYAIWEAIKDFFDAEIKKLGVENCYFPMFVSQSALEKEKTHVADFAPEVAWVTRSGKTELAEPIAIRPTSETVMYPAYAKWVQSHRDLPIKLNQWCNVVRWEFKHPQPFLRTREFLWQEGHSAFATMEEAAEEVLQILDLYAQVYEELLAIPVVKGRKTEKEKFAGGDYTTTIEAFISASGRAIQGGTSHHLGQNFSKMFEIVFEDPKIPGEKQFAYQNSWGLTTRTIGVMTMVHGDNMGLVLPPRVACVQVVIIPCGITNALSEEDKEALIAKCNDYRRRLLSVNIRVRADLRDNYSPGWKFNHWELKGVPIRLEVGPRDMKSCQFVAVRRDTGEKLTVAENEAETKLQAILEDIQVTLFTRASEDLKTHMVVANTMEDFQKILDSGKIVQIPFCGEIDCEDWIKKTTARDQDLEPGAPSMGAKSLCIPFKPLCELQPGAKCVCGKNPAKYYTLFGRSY
# PfcProRS = biological target: T1, PfcProRS (Plasmodium falciparum, UniProt Q8I5R7); assay type: binding; conditions: for dose-response signal (normalized), SI Fig 8: single replicates; for PfcProRS -- best Kd: SI Fig 16a, values on -log scale; for Normalized response, dose-response replicates (SI Fig 14): replicates 1-3
# T1 construct: made in house; host or cells: E. coli SoluBL-21
# T1 sequence (Q8I5R7 249-746): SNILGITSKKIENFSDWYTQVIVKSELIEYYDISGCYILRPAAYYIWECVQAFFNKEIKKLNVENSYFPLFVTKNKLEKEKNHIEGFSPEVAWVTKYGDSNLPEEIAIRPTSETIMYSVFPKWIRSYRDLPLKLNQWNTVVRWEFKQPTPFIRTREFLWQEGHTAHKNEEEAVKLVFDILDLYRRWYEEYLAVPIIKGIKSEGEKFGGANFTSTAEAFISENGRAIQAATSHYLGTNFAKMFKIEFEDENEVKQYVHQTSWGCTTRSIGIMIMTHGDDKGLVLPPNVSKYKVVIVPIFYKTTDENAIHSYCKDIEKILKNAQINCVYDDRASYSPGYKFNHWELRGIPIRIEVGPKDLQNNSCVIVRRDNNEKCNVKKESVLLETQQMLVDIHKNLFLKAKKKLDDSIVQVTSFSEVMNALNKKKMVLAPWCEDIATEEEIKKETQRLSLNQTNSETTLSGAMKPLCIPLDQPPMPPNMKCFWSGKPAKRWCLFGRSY
# P. falciparum Dd2-2D4 = test: P. falciparum asexual blood stage (ABS) growth assay, SYBR Green, 72 h, wild-type parasites; assay type: cell-based, Plasmodium falciparum; conditions: wildtype (Dd2-2D4)
# Description: Parasites were maintained under standard culture conditions as described previously[56],[57]. […] The P. falciparum Dd2 cell lines used in this study (Dd2-2D4, halofuginone-induced, and HFGR-I) have previously undergone whole genome sequencing in our labs.
# This assay was performed as previously described[8]. In short, P. falciparum erythrocytic-stage parasites at 1% parasitemia and 1% hematocrit in RPMI + 0.5% Albumax were seeded at 40 μL/well in 384-well plates with test compounds in triplicate, dose-response format with 10 μM dihydroartemisinin as a kill-control and blank (no compound) wells as a growth-control. […] After 72 h, growth was quantified by measuring fluorescence (Molecular Devices SpectraMax iD5) following SYBR Green 1 staining. Data were analyzed in Excel and plotted in PRISM (V. 8.4.3–9.1.0, GraphPad).
smiles,measurement,setting,value
O=C(NC1Cc2ccccc2C1)c1nccnc1NC(=O)C1CCOCC1 [compound 18],Kd,HsProRS,7400 nM
same,pKd,HsProRS,6.65
same,"normalized TR-FRET ligand displacement signal, dose-response replicates (SI Fig 6)",HsProRS; Log[inhibitor] (M) -5.000,6.96E-01 and 5.92E-01 and 5.43E-01
same,"TR-FRET dose-response, normalized signal (SI Fig 11)",HsProRS; Log[inhibitor] (M) -5.000,4.20E-01 and 4.17E-01 and 4.61E-01
same,"normalized TR-FRET ligand displacement signal, dose-response replicates (SI Fig 6)",HsProRS; Log[inhibitor] (M) -5.301,8.37E-01 and 8.70E-01 and 8.44E-01
same,"TR-FRET dose-response, normalized signal (SI Fig 11)",HsProRS; Log[inhibitor] (M) -5.301,6.08E-01 and 6.33E-01 and 6.32E-01
same,"normalized TR-FRET ligand displacement signal, dose-response replicates (SI Fig 6)",HsProRS; Log[inhibitor] (M) -5.601,9.23E-01 and 9.21E-01 and 9.37E-01
same,"TR-FRET dose-response, normalized signal (SI Fig 11)",HsProRS; Log[inhibitor] (M) -5.601,7.60E-01 and 7.57E-01 and 7.53E-01
same,"normalized TR-FRET ligand displacement signal, dose-response replicates (SI Fig 6)",HsProRS; Log[inhibitor] (M) -5.904,9.48E-01 and 1.01E+00 and 1.07E+00
same,"TR-FRET dose-response, normalized signal (SI Fig 11)",HsProRS; Log[inhibitor] (M) -5.904,8.33E-01 and 8.64E-01 and 8.38E-01
same,"normalized TR-FRET ligand displacement signal, dose-response replicates (SI Fig 6)",HsProRS; Log[inhibitor] (M) -6.208,1.06E+00 (2×) and 1.00E+00
same,"TR-FRET dose-response, normalized signal (SI Fig 11)",HsProRS; Log[inhibitor] (M) -6.208,8.52E-01 and 9.04E-01 and 9.21E-01
same,"normalized TR-FRET ligand displacement signal, dose-response replicates (SI Fig 6)",HsProRS; Log[inhibitor] (M) -6.509,1.01E+00 and 1.02E+00 and 9.62E-01
same,"TR-FRET dose-response, normalized signal (SI Fig 11)",HsProRS; Log[inhibitor] (M) -6.509,9.56E-01 and 9.24E-01 and 9.57E-01
same,"normalized TR-FRET ligand displacement signal, dose-response replicates (SI Fig 6)",HsProRS; Log[inhibitor] (M) -6.796,9.72E-01 and 9.92E-01 and 1.02E+00
same,"TR-FRET dose-response, normalized signal (SI Fig 11)",HsProRS; Log[inhibitor] (M) -6.796,9.31E-01 (2×) and 9.72E-01
same,"normalized TR-FRET ligand displacement signal, dose-response replicates (SI Fig 6)",HsProRS; Log[inhibitor] (M) -7.108,9.59E-01 and 8.74E-01 and 9.90E-01
same,"TR-FRET dose-response, normalized signal (SI Fig 11)",HsProRS; Log[inhibitor] (M) -7.108,9.27E-01 and 9.12E-01 and 9.11E-01
same,"normalized TR-FRET ligand displacement signal, dose-response replicates (SI Fig 6)",HsProRS; Log[inhibitor] (M) -7.409,9.78E-01 and 1.02E+00 and 1.05E+00
same,"TR-FRET dose-response, normalized signal (SI Fig 11)",HsProRS; Log[inhibitor] (M) -7.409,9.66E-01 (2×) and 9.82E-01
same,"normalized TR-FRET ligand displacement signal, dose-response replicates (SI Fig 6)",HsProRS; Log[inhibitor] (M) -7.710,9.30E-01 and 1.05E+00 and 1.11E+00
same,"TR-FRET dose-response, normalized signal (SI Fig 11)",HsProRS; Log[inhibitor] (M) -7.710,9.81E-01 and 9.38E-01 and 9.42E-01
same,"normalized TR-FRET ligand displacement signal, dose-response replicates (SI Fig 6)",HsProRS; Log[inhibitor] (M) -8.000,9.51E-01 and 9.79E-01 and 1.05E+00
same,"TR-FRET dose-response, normalized signal (SI Fig 11)",HsProRS; Log[inhibitor] (M) -8.000,9.53E-01 and 9.52E-01 and 9.49E-01
same,"normalized TR-FRET ligand displacement signal, dose-response replicates (SI Fig 6)",HsProRS; Log[inhibitor] (M) -8.301,9.09E-01 and 9.22E-01 and 9.59E-01
same,"TR-FRET dose-response, normalized signal (SI Fig 11)",HsProRS; Log[inhibitor] (M) -8.301,9.20E-01 and 1.00E+00 and 8.97E-01
same,"normalized TR-FRET ligand displacement signal, dose-response replicates (SI Fig 6)",HsProRS; Log[inhibitor] (M) -8.602,9.55E-01 and 9.72E-01 and 1.02E+00
same,"TR-FRET dose-response, normalized signal (SI Fig 11)",HsProRS; Log[inhibitor] (M) -8.602,9.41E-01 and 9.60E-01 and 9.87E-01
same,"normalized TR-FRET ligand displacement signal, dose-response replicates (SI Fig 6)",HsProRS; Log[inhibitor] (M) -9.000,9.17E-01 and 1.01E+00 and 9.46E-01
same,"TR-FRET dose-response, normalized signal (SI Fig 11)",HsProRS; Log[inhibitor] (M) -9.000,9.26E-01 and 9.53E-01 and 9.30E-01
same,"normalized TR-FRET ligand displacement signal, dose-response replicates (SI Fig 6)",HsProRS; Log[inhibitor] (M) -9.301,9.60E-01 and 1.07E+00 and 9.73E-01
same,"TR-FRET dose-response, normalized signal (SI Fig 11)",HsProRS; Log[inhibitor] (M) -9.301,9.44E-01 and 9.56E-01 and 9.33E-01
same,"dose-response signal (normalized), SI Fig 8",PfcProRS; Log[inhibitor] (M) -5.000,3.01E-01 and 4.11E-01 and 4.27E-01
same,"dose-response signal (normalized), SI Fig 8",PfcProRS; Log[inhibitor] (M) -5.301,6.53E-01 and 6.16E-01 and 6.73E-01
same,"dose-response signal (normalized), SI Fig 8",PfcProRS; Log[inhibitor] (M) -5.601,8.02E-01 and 8.42E-01 and 8.63E-01
same,"dose-response signal (normalized), SI Fig 8",PfcProRS; Log[inhibitor] (M) -5.904,1.01E+00 and 1.00E+00 and 9.12E-01
same,"dose-response signal (normalized), SI Fig 8",PfcProRS; Log[inhibitor] (M) -6.208,1.03E+00 and 1.00E+00 and 9.60E-01
same,"dose-response signal (normalized), SI Fig 8",PfcProRS; Log[inhibitor] (M) -6.509,1.16E+00 and 9.38E-01 and 1.04E+00
same,"dose-response signal (normalized), SI Fig 8",PfcProRS; Log[inhibitor] (M) -6.796,9.96E-01 and 9.92E-01 and 1.04E+00
same,"dose-response signal (normalized), SI Fig 8",PfcProRS; Log[inhibitor] (M) -7.108,1.02E+00 and 9.74E-01 and 9.75E-01
same,"dose-response signal (normalized), SI Fig 8",PfcProRS; Log[inhibitor] (M) -7.409,1.01E+00 (2×) and 1.08E+00
same,"dose-response signal (normalized), SI Fig 8",PfcProRS; Log[inhibitor] (M) -7.710,9.82E-01 and 1.05E+00 and 9.42E-01
same,"dose-response signal (normalized), SI Fig 8",PfcProRS; Log[inhibitor] (M) -8.000,1.03E+00 and 1.10E+00 and 9.98E-01
same,"dose-response signal (normalized), SI Fig 8",PfcProRS; Log[inhibitor] (M) -8.301,9.51E-01 and 1.13E+00 and 9.71E-01
same,"dose-response signal (normalized), SI Fig 8",PfcProRS; Log[inhibitor] (M) -8.602,1.03E+00 and 9.75E-01 and 1.04E+00
same,"dose-response signal (normalized), SI Fig 8",PfcProRS; Log[inhibitor] (M) -9.000,9.05E-01 and 1.01E+00 and 9.83E-01
same,"dose-response signal (normalized), SI Fig 8",PfcProRS; Log[inhibitor] (M) -9.301,9.17E-01 and 9.20E-01 and 9.09E-01
same,PfcProRS -- best Kd,PfcProRS,5.799
same,"% signal at 20 μM, wildtype (Dd2-2D4)",P. falciparum Dd2-2D4; 20 μM,108%
NCCCCCC(=O)NCC1CCN(C(=O)Nc2nccnc2C(=O)NC2Cc3ccccc3C2)CC1 [compound 44],Kd,HsProRS,1570 nM
same,pKd,HsProRS,6.48
same,"Normalized response, dose-response replicates (SI Fig 14)",PfcProRS; Log[inhibitor] (M) -5.000,5.04E-02 and 6.61E-02 and 1.21E-01
same,"Normalized response, dose-response replicates (SI Fig 14)",PfcProRS; Log[inhibitor] (M) -5.301,2.04E-01 and 9.30E-02 and 7.91E-02
same,"Normalized response, dose-response replicates (SI Fig 14)",PfcProRS; Log[inhibitor] (M) -5.601,1.77E-01 and 2.33E-01 and 2.91E-01
same,"Normalized response, dose-response replicates (SI Fig 14)",PfcProRS; Log[inhibitor] (M) -5.904,3.70E-01 and 3.87E-01 and 3.95E-01
same,"Normalized response, dose-response replicates (SI Fig 14)",PfcProRS; Log[inhibitor] (M) -6.208,5.30E-01 and 6.18E-01 and 4.52E-01
same,"Normalized response, dose-response replicates (SI Fig 14)",PfcProRS; Log[inhibitor] (M) -6.509,5.98E-01 and 6.58E-01 and 5.97E-01
same,"Normalized response, dose-response replicates (SI Fig 14)",PfcProRS; Log[inhibitor] (M) -6.796,8.14E-01 and 8.03E-01 and 8.36E-01
same,"Normalized response, dose-response replicates (SI Fig 14)",PfcProRS; Log[inhibitor] (M) -7.108,7.21E-01 and 9.08E-01 and 7.69E-01
same,"Normalized response, dose-response replicates (SI Fig 14)",PfcProRS; Log[inhibitor] (M) -7.409,9.22E-01 and 9.63E-01 and 8.84E-01
same,"Normalized response, dose-response replicates (SI Fig 14)",PfcProRS; Log[inhibitor] (M) -7.710,9.26E-01 and 9.41E-01 and 9.94E-01
same,"Normalized response, dose-response replicates (SI Fig 14)",PfcProRS; Log[inhibitor] (M) -8.000,9.86E-01 and 9.96E-01 and 9.45E-01
same,"Normalized response, dose-response replicates (SI Fig 14)",PfcProRS; Log[inhibitor] (M) -8.301,1.01E+00 and 1.07E+00 and 1.09E+00
same,"Normalized response, dose-response replicates (SI Fig 14)",PfcProRS; Log[inhibitor] (M) -8.602,1.05E+00 and 9.10E-01 and 8.68E-01
same,"Normalized response, dose-response replicates (SI Fig 14)",PfcProRS; Log[inhibitor] (M) -9.000,8.54E-01 and 1.03E+00 and 1.01E+00
same,"Normalized response, dose-response replicates (SI Fig 14)",PfcProRS; Log[inhibitor] (M) -9.301,1.02E+00 and 8.64E-01 and 7.91E-01
same,PfcProRS -- best Kd,PfcProRS,6.569
same,"% signal at 10 μM, wildtype (Dd2-2D4)",P. falciparum Dd2-2D4; 10 μM,51.4%
